Where only a bound is given, the exact number is not on record here.

The values below come from patent US9580439B2, “Inhibitors of focal adhesion kinase” (The Scripps Research Institute, priority 2007, dated 2017).

In this assay the target is FAK (411-686, activated by Src and repurified) (Homo sapiens, UniProt Q05397). As to the kind of experiment: FAK Biochemical Assay (cell-free, HTRF). Conditions: 10 μM ATP, read-out: 50% inhibitory concentrations (IC50) against focal adhesion kinase in the cell-free assay. As to the method:
All experiments were performed in Greiner FIA black 384-well low volume plates.
A 5 μl mixture of a 200 nM Ulight-poly GT substrate (Perkin Elmer) and 10 μM ATP in Kinase buffer (50 mM Hepes pH 7.3, 10 mM MgCl2, 1 mM EGTA, 0.01% Tween-20, 2 mM dithriothreitol) was dispensed into the wells. […] of 90% DMSO/10% water containing the compounds to be tested was added to the wells. Kinase reaction was started by addition of 5 μl of 1 nM FAK (411-686, activated by Src and repurified) in Kinase buffer. After 50 min at RT the reaction was stopped with 5 μl of 40 mM EDTA in detection buffer (Perkin Elmer, Lance detection buffer) followed by a 5 μl addition of 8 nM LANCE Ei-W1024 anti-phosphotyrosine (PY20) antibody in detection buffer. After 1 h incubation at RT the plate was read on the Viewlux in HTRF mode.
On the technique in general: Time-resolved FRET reads energy transfer from a long-lived donor to a nearby acceptor.

Sequence of FAK (411-686, activated by Src and repurified) (Q05397 411-686, species assumed): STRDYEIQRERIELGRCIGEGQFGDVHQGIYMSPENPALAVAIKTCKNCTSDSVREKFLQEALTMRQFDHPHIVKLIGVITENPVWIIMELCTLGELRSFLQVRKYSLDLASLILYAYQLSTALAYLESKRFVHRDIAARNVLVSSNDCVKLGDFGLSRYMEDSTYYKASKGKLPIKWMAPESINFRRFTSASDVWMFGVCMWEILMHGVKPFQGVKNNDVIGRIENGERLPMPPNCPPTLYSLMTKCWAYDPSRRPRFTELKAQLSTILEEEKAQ

Regarding `CN1Cc2cccc(Nc3cc(Nc4cccc5c4C(=O)N(C)C5)c(C(F)(F)F)cn3)c2C1=O` [Compound 3, 7,7′-(5-(trifluoromethyl)pyridine-2,4-diyl)bis(azanediyl)bis(2-methylisoindolin-1-one)], the IC50 was more than 10 µM. Then `CNS(=O)(=O)c1ccccc1Nc1cc(Nc2ccccc2S(=O)(=O)NC)c(C(F)(F)F)cn1` [Compound 5], with more than 10 µM.
